Assays:
[1] = tested on: HYDROX-cultured human liver organoid composition
Method: In this Example, the human liver organoid produced in Reference Example 1 was cultured with HYDROX (FIG. 1A) to produce a human liver organoid composition including the HYDROX, and its liver function was identified. The Matrigel-cultured human liver organoid produced in Reference Example 1 was treated with TrypLE Select so that the Matrigel was degraded. The resultant cell cluster was suspended in the medium for a human liver organoid, and was seeded on a HYDROX plate at 300 μL/well, followed by three-dimensional culture (HYDROX culture). The cell cluster was reseeded on a new HYDROX plate every 7 days. The HYDROX plate was produced as described below. In a 48-well adhesive plate, a HYDROX raw material polymer (Psar-PLLA) was mixed with 95% ethanol (Nacalai tesque) at a concentration of 10 mg/mL, and the mixture was warmed at 70° C. for 10 minutes. The dissolved polymer solution was dropped into a culture plate, and was dried for 8 hours or more to produce the human liver organoid composition including the HYDROX. In this Example and the following Examples, the human liver organoid composition including the HYDROX is referred to as “HYDROX-cultured human liver organoid composition.”
(§1) Further, at the initial stage of the development of a new drug, the safety of the drug needs to be accurately evaluated by a hepatotoxicity evaluation test. Accordingly, an investigation was made on the potential of the HYDROX-cultured human liver organoid composition to be applied to the hepatotoxicity evaluation test.

[2] = tested on: primary human liver cell
Method: In this Reference Example, 1 lot (lot name: HC4-24, XenoTech) of cultured primary human liver cells were cultured. The cells were rapidly thawed in a shaking water bath at 37° C., and were suspended in OptiTHAW Hepatocyte Isolation Kit (XenoTech) that had been preheated, followed by centrifugation at 100 g and room temperature for 5 minutes. The liver cells were suspended in HCM (Lonza) so that their density became 2.5×10^5 cells/cm^2, followed by seeding on 48-well Corning^RBioCoat™ Collagen I-coated Microplates (Corning). After the cells had been cultured for 48 hours, various tests were performed.
as §1

Row | Compound | cell viability [1] | cell viability [2]
1 | Cc1c(C)c2c(c(C)c1O)CCC(C)(COc1ccc(CC3SC(=O)NC3=O)cc1)O2 (centres unmarked) [Troglitazone] | the viability reduced in accordance with the concentration of each of the drugs | the viability reduced in accordance with the concentration of each of the drugs
2 | CC(=O)Nc1ccc(O)cc1 [acetaminophen] | the viability reduced in accordance with the concentration of each of the drugs | 
3 | CCCCc1oc2ccccc2c1C(=O)c1cc(I)c(OCCN(CC)CC)c(I)c1 [amiodarone] | the viability reduced in accordance with the concentration of each of the drugs | the viability reduced in accordance with the concentration of each of the drugs
